For nine compounds, IC50 results are on record in patent US20220340597A1, “HEXAHYDRO-1H-PYRAZINO[1,2-A]PYRAZINE COMPOUNDS FOR THE TREATMENT OF AUTOIMMUNE DISEASE” (Hoffmann-La Roche Inc., priority 2019, published 2022).

For experiment [1], the target named is T1, human TLR9 (Homo sapiens, UniProt Q9NR96).
T1 construct: host or cells: HEK293 (HEK-Blue hTLR9)
T1 sequence (Q9NR96 26-1032): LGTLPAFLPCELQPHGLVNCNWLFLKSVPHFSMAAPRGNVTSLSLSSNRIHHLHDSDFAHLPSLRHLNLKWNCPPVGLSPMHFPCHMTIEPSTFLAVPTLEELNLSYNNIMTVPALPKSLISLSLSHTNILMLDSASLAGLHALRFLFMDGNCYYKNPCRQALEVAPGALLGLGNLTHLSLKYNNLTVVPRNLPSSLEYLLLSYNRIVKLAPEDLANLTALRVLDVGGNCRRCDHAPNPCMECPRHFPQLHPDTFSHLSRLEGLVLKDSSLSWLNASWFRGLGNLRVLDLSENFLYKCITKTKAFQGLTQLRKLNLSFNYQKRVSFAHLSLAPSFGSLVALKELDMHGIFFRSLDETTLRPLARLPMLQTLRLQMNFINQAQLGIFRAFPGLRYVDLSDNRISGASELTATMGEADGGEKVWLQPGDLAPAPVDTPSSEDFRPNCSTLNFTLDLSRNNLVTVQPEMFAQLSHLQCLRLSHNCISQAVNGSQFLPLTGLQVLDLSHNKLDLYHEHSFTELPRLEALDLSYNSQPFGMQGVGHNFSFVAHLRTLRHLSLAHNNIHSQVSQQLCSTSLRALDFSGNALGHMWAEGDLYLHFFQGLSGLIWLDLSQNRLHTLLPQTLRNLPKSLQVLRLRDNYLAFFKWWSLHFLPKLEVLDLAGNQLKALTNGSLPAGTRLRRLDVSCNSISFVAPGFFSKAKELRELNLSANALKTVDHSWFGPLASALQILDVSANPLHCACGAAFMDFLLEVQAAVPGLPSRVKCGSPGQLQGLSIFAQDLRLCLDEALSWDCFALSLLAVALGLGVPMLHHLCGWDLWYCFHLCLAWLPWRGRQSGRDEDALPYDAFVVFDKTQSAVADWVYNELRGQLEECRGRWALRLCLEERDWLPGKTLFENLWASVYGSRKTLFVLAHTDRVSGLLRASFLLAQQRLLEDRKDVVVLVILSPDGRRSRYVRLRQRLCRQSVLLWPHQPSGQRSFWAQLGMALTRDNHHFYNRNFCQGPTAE
The experiment in a line: HEK293-Blue-hTLR-9 cells assay. The conditions noted are these: HEK293-Blue-hTLR9 cells, ODN2006 stimulation, 20 hrs, SEAP reporter; read-out: HEK/hTLR9 IC50. The class given is cell-based.

For experiment [2], the target named is T2, human TLR8 (Homo sapiens, UniProt Q9NR97).
T2 sequence (Q9NR97 27-1041): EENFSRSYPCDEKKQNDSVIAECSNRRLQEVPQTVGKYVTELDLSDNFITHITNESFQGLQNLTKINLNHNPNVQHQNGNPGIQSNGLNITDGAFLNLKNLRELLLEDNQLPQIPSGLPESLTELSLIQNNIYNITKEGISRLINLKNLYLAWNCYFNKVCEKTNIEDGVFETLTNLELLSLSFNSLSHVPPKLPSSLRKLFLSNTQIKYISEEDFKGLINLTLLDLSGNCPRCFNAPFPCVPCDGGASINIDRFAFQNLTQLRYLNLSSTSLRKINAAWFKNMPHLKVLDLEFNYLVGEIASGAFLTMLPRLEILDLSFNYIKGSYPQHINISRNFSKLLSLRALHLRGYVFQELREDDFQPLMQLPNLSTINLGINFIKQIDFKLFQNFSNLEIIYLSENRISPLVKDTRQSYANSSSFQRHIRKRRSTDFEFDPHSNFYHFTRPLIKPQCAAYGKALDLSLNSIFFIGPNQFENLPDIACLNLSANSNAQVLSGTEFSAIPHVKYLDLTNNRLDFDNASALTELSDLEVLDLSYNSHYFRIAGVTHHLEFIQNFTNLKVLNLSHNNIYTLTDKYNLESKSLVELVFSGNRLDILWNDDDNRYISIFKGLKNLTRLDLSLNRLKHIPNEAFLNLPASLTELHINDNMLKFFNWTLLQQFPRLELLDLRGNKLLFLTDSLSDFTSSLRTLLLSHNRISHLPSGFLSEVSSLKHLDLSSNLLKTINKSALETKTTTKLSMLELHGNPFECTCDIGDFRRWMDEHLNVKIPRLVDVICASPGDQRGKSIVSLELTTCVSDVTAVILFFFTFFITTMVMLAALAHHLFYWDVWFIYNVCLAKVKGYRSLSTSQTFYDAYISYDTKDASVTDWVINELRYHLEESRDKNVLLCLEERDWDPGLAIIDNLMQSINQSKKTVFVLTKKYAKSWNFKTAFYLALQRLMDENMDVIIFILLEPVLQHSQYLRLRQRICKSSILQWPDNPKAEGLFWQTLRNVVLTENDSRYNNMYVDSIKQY
As to the kind of experiment: HEK293-Blue-hTLR-8 cells assay.
Description: The following tests were carried out in order to determine the activity of the compounds of formula (I) and (Ia) in HEK293-Blue-hTLR-7/8/9 cells assay.
HEK293-Blue-hTLR-8 Cells Assay:
A stable HEK293-Blue-hTLR-8 cell line was purchased from InvivoGen (Cat. #: hkb-htlr8, San Diego, Calif., USA). These cells were originally designed for studying the stimulation of human TLR8 by monitoring the activation of NF-κB. A SEAP (secreted embryonic alkaline phosphatase) reporter gene was placed under the control of the IFN-β minimal promoter fused to five NF-κB and AP-1-binding sites. The SEAP was induced by activating NF-κB and AP-1 via stimulating HEK-Blue hTLR8 cells with TLR8 ligands. Therefore, the reporter expression was declined by TLR8 antagonist under the stimulation of a ligand, such as R848, for incubation of 20 hrs. The cell culture supernatant SEAP reporter activity was determined using QUANTI-Blue™ kit (Cat. #: rep-qb1, Invivogen, San Diego, Calif., USA) at a wavelength of 640 nm, a detection medium that turns purple or blue in the presence of alkaline phosphatase.

SMILES strings stand for the structures.

Take `[2H]c1ccc2c(N3C[C@@H]4CN(CCc5ccc(N6CC[C@@](C)(N)C6)nc5)CCN4[C@H](C)C3)ccc(C#N)c2n1` [Example 84, 5-[(4R,9aS)-8-[2-[6-[(3R)-3-amino-3-methyl-pyrrolidin-1-yl]-3-pyridyl]ethyl]-4-methyl-3,4,6,7,9,9a-hexahydro-1H-pyrazino[1,2-a]pyrazin-2-yl]-2-deuterio-quinoline-8-carbonitrile]: the IC50 in experiment [1] is below 32 nM; in experiment [2] it was 19 nM.
For `[2H]c1ccc2c(N3C[C@@H]4CN(c5ncc(N6C[C@@H](N)[C@@H](OC)C6)cc5C)CCN4[C@H](C)C3)ccc(C#N)c2n1` [Example 96, 5-[(4R,9aR)-8-[5-[(3R,4S)-3-amino-4-methoxy-pyrrolidin-1-yl]-3-methyl-2-pyridyl]-4-methyl-3,4,6,7,9,9a-hexahydro-1H-pyrazino[1,2-a]pyrazin-2-yl]-2-deuterio-quinoline-8-carbonitrile], in that order: 189 nM and 5 nM.
The corresponding values for `Cc1cc(N2CCNCC2)cnc1N1CCN2[C@@H](C1)CN(c1cc(=O)n(C)c3ncccc13)C[C@H]2C` [Example 93, 4-[(4R,9aR)-4-methyl-8-(3-methyl-5-piperazin-1-yl-2-pyridyl)-3,4,6,7,9,9a-hexahydro-1H-pyrazino[1,2-a]pyrazin-2-yl]-1-methyl-1,8-naphthyridin-2-one] are 186 nM and 61 nM.
The corresponding values for `[2H]c1ccc2c(N3C[C@@H]4CN(CCc5ccnc(N6C[C@@H](N)[C@@H](F)C6)c5)CCN4[C@H](C)C3)ccc(C#N)c2n1` [Example 89, 5-[(4R,9aS)-8-[2-[2-[(3R,4S)-3-amino-4-fluoro-pyrrolidin-1-yl]-4-pyridyl]ethyl]-4-methyl-3,4,6,7,9,9a-hexahydro-1H-pyrazino[1,2-a]pyrazin-2-yl]-2-deuterio-quinoline-8-carbonitrile] are 47 nM and 44 nM.
Take `[2H]c1ccc2c(N3C[C@@H]4CN(c5ncc(N6C[C@H]7NCCO[C@@H]7C6)cc5C)CCN4[C@H](C)C3)ccc(C#N)c2n1` [Example 100, 5-[(4R,9aR)-8-[5-[(4aR,7aR)-3,4,4a,5,7,7a-hexahydro-2H-pyrrolo[3,4-b][1,4]oxazin-6-yl]-3-methyl-2-pyridyl]-4-methyl-3,4,6,7,9,9a-hexahydro-1H-pyrazino[1,2-a]pyrazin-2-yl]-2-deuterio-quinoline-8-carbonitrile]: the IC50 in experiment [1] came to 173 nM; in experiment [2], 3 nM.
`[2H]c1ccc2c(N3C[C@@H]4CN(c5ncc(N6CC[C@@](C)(N)C6)cc5C)CCN4[C@H](C)C3)ccc(C#N)c2n1` [Example 97, 5-[(4R,9aR)-8-[5-[(3R)-3-amino-3-methyl-pyrrolidin-1-yl]-3-methyl-2-pyridyl]-4-methyl-3,4,6,7,9,9a-hexahydro-1H-pyrazino[1,2-a]pyrazin-2-yl]-2-deuterio-quinoline-8-carbonitrile]: the IC50 came to 140 nM in experiment [1] and 4 nM in experiment [2].
Take `[2H]c1ccc2c(N3C[C@@H]4CN(Cc5ccc(N6C[C@H]7NCCO[C@@H]7C6)nc5C)CCN4[C@H](C)C3)ccc(C#N)c2n1` [Example 98, 5-[(4R,9aS)-8-[[6-[(4aR,7aR)-3,4,4a,5,7,7a-hexahydro-2H-pyrrolo[3,4-b][1,4]oxazin-6-yl]-2-methyl-3-pyridyl]methyl]-4-methyl-3,4,6,7,9,9a-hexahydro-1H-pyrazino[1,2-a]pyrazin-2-yl]-2-deuterio-quinoline-8-carbonitrile]: the IC50 in experiment [1] amounted to 58 nM; in experiment [2], 10 nM.
The corresponding values for `C[C@@H]1CN(c2ccc(C#N)c3ncccc23)C[C@@H]2CN(Cc3ccc4c(c3)CNCC4)CCN21` (relative stereo) [Example 1] are 58 nM and 10 nM.
The corresponding values for `[2H]c1ccc2c(N3C[C@@H]4CN(Cc5ccc(N6C[C@@H]7C[C@H]6CN7)nc5C)CCN4[C@H](C)C3)ccc(C#N)c2n1` [Example 92, 5-[(4R,9aS)-8-[[6-[(1S,4S)-2,5-diazabicyclo[2.2.1]heptan-2-yl]-2-methyl-3-pyridyl]methyl]-4-methyl-3,4,6,7,9,9a-hexahydro-1H-pyrazino[1,2-a]pyrazin-2-yl]-2-deuterio-quinoline-8-carbonitrile] are 34 nM and 9 nM.
